The record followed here is ChEMBL document CHEMBL1201862, “PubChem BioAssay data set” (2004).

Test systems include A498; BT-549; CAKI-1; COLO 205; DU-145; HOP-92; K562; KM12; M14; MOLT-4; Malme-3M; NCI-H226; NCI-H23; SF-295; SF-539; SK-MEL-2; SK-OV-3; SNB-75; T47D; UACC-62.
Holding throughout (test): NCI anticancer screen, dose series, 48 h

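Exposure lasted 48 hours, with cells grown in 96-well plates and compounds tested at five concentrations. GI50 marks 50% less growth.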 Activity calls are given as the source filed them. Cut-off read from the data, not from the text of the source: active = GI50 up to about 1.1 µM and inactive = higher.

For `N#C/C(=C\c1cc(O)c(O)c(O)c1)C(N)=O`, the GI50 is > 100 µM (inactive) with A498; 97.5 µM (inactive) with BT-549; > 100 µM (inactive) in the experiment on CAKI-1; > 100 µM (inactive) with COLO 205; 97.7 µM (inactive) in the experiment on DU-145; 98.2 µM (inactive) in the experiment with HOP-92. In addition, the GI50 in the experiment with K562 was 62.2 µM (inactive); in the experiment with KM12, > 90.4 µM (inactive); in the experiment on M14, > 90.2 µM (inactive); in the experiment on MOLT-4, 52.5 µM (inactive); in the experiment on Malme-3M, > 100 µM (inactive); with NCI-H226, > 100 µM (inactive). Besides, the GI50 is > 100 µM (inactive) in the experiment on NCI-H23; > 100 µM (inactive) in the experiment with SF-295; > 100 µM (inactive) with SF-539; > 100 µM (inactive) in the experiment on SK-MEL-2; > 100 µM (inactive) in the experiment with SK-OV-3; 63.7 µM (inactive) in the experiment on SNB-75. For the same compound, the GI50 with T47D is > 100 µM (inactive); with UACC-62 it was 72.6 µM (inactive).

As for `CSc1nc(SC)c2c(CN=[N+]=[N-])c(Br)n(Cc3ccccc3)c2n1`, the GI50 with A498 is > 100 µM (inactive); with BT-549, > 100 µM (inactive); in the experiment with CAKI-1 it was > 100 µM (inactive); with COLO 205 it was > 100 µM (inactive); in the experiment with DU-145, > 100 µM (inactive); in the experiment with HOP-92, 15 µM (inactive). For the same compound, the GI50 is > 100 µM (inactive) in the experiment on KM12; > 100 µM (inactive) in the experiment on M14; > 100 µM (inactive) with MOLT-4; > 100 µM (inactive) with Malme-3M; 83.8 µM (inactive) with NCI-H226; > 100 µM (inactive) in the experiment with NCI-H23. Besides, the GI50 was 36.1 µM (inactive) in the experiment on SF-295; 32.8 µM (inactive) in the experiment on SF-539; > 100 µM (inactive) with SK-MEL-2; 24.1 µM (inactive) in the experiment on SK-OV-3; 51.3 µM (inactive) in the experiment with SNB-75; 11.7 µM (inactive) in the experiment on T47D. Moreover, the GI50 in the experiment on UACC-62 was 47.3 µM (inactive).

For `C/C(=N\c1ccc(Cl)cc1)c1ccncc1`, the GI50 in the experiment on A498 is 3.96 µM (inactive); with BT-549, > 100 µM (inactive); with CAKI-1, > 100 µM (inactive); in the experiment with COLO 205, 5.64 µM (inactive); in the experiment with DU-145 it was > 100 µM (inactive); with HOP-92 it was > 100 µM (inactive). The GI50 in the experiment with K562 is > 100 µM (inactive); in the experiment on KM12, > 100 µM (inactive); in the experiment with M14, > 100 µM (inactive); in the experiment on MOLT-4 it was 3.4 µM (inactive); with Malme-3M it was > 100 µM (inactive); in the experiment on NCI-H226, > 100 µM (inactive). The GI50 in the experiment on NCI-H23 is 67.8 µM (inactive); in the experiment with SF-295 it was > 100 µM (inactive); in the experiment on SF-539, 4.31 µM (inactive); with SK-MEL-2, > 100 µM (inactive); with SNB-75 it was > 100 µM (inactive); in the experiment on T47D, 0.809 µM (active).

For `CN(/N=C\c1ccc2ccccc2c1)C1=NCCCCN1`, the GI50 in the experiment with A498 was 21 µM (inactive); in the experiment with BT-549, 14.6 µM (inactive); with CAKI-1 it was 11.8 µM (inactive); in the experiment with COLO 205, 16.1 µM (inactive); with DU-145, 54.2 µM (inactive); with HOP-92, 0.124 µM (active). In addition, the GI50 was 17.4 µM (inactive) in the experiment on K562; 20.9 µM (inactive) with KM12; 17.6 µM (inactive) in the experiment with MOLT-4; 14.9 µM (inactive) with Malme-3M; 35.3 µM (inactive) with NCI-H226; 29.8 µM (inactive) with NCI-H23. Moreover, the GI50 in the experiment with SF-295 is 15.7 µM (inactive); with SF-539, 21.7 µM (inactive); in the experiment with SK-MEL-2 it was 23.8 µM (inactive); in the experiment with SK-OV-3, 22.1 µM (inactive); in the experiment on SNB-75, 10.4 µM (inactive); in the experiment on T47D, 31.6 µM (inactive). Also, the GI50 in the experiment on UACC-62 is 27.2 µM (inactive).

For `CC1=C(C)C1[N+](=O)[O-]`, the GI50 is 97.7 µM (inactive) in the experiment on A498; > 100 µM (inactive) in the experiment with BT-549; > 100 µM (inactive) with CAKI-1; > 100 µM (inactive) in the experiment with COLO 205; > 100 µM (inactive) with DU-145; > 100 µM (inactive) in the experiment on HOP-92. Also, the GI50 in the experiment with K562 is > 100 µM (inactive); in the experiment with KM12, > 100 µM (inactive); in the experiment on M14, > 100 µM (inactive); in the experiment with MOLT-4, > 100 µM (inactive); in the experiment with Malme-3M, 82.6 µM (inactive); in the experiment with NCI-H226 it was > 100 µM (inactive). Also, the GI50 is > 100 µM (inactive) in the experiment on NCI-H23; > 100 µM (inactive) with SF-295; > 100 µM (inactive) in the experiment with SF-539; > 100 µM (inactive) in the experiment with SK-OV-3; 26.1 µM (inactive) in the experiment on SNB-75; > 100 µM (inactive) with T47D. For the same compound, the GI50 in the experiment on UACC-62 was > 100 µM (inactive).

Take `CN(CCCN(C)Cc1ccc(Cl)c(Cl)c1)CCN1CCCC1`: the GI50 in the experiment on A498 was 13.9 µM (inactive); with BT-549 it was 30.8 µM (inactive); in the experiment on CAKI-1, 29.2 µM (inactive); in the experiment on COLO 205, 9.35 µM (inactive); in the experiment on DU-145, 62.1 µM (inactive); in the experiment on HOP-92 it was 4.16 µM (inactive). For the same compound, the GI50 is 4.67 µM (inactive) with K562; 30.7 µM (inactive) in the experiment on KM12; 5.73 µM (inactive) with M14; 6.27 µM (inactive) with MOLT-4; 15.8 µM (inactive) with Malme-3M; 21.2 µM (inactive) in the experiment with NCI-H226. Besides, the GI50 with NCI-H23 is 26.5 µM (inactive); in the experiment on SF-295, 21.7 µM (inactive); in the experiment with SF-539 it was 16.7 µM (inactive); with SK-MEL-2, 11 µM (inactive); in the experiment on SK-OV-3 it was 75.3 µM (inactive); in the experiment on SNB-75 it was 19.1 µM (inactive). Also, the GI50 in the experiment on T47D was 29.9 µM (inactive); in the experiment with UACC-62 it was 1.85 µM (inactive).

`CC(O)(Cc1ccccc1C#N)Cc1ccccc1C#N`: the GI50 in the experiment on A498 is > 100 µM (inactive); in the experiment on BT-549, 38.5 µM (inactive); in the experiment on CAKI-1 it was > 100 µM (inactive); with COLO 205, 70.8 µM (inactive); in the experiment with DU-145, > 100 µM (inactive); with HOP-92, 95.5 µM (inactive). In addition, the GI50 with K562 was 50 µM (inactive); in the experiment with KM12, 51.5 µM (inactive); in the experiment on M14, > 100 µM (inactive); in the experiment on MOLT-4 it was 28.6 µM (inactive); with Malme-3M, > 100 µM (inactive); with NCI-H226, 50 µM (inactive). For the same compound, the GI50 with SF-295 was 74 µM (inactive); in the experiment with SF-539 it was > 100 µM (inactive); with SK-MEL-2, > 100 µM (inactive); in the experiment on SK-OV-3 it was > 100 µM (inactive); in the experiment on SNB-75 it was 37 µM (inactive); in the experiment on T47D, 37.6 µM (inactive). For the same compound, in the experiment on UACC-62, the GI50 is 59.8 µM (inactive).

Regarding `OC1c2ccccc2CCC1CN1CCN(CCOC(c2ccc(F)cc2)c2ccc(F)cc2)CC1` (stereo not drawn), the GI50 in the experiment with A498 is 12.3 µM (inactive); in the experiment with BT-549, 12.4 µM (inactive); in the experiment on CAKI-1, 25.1 µM (inactive); in the experiment on COLO 205, 1.72 µM (inactive); in the experiment with DU-145 it was 21 µM (inactive); with HOP-92, 9.16 µM (inactive). Besides, the GI50 in the experiment with K562 is 2.94 µM (inactive); with KM12 it was 20.5 µM (inactive); with M14, 10.9 µM (inactive); in the experiment on MOLT-4, 8.83 µM (inactive); in the experiment on Malme-3M, 15.2 µM (inactive); in the experiment with NCI-H226 it was 13.6 µM (inactive). The GI50 in the experiment on NCI-H23 was 14.5 µM (inactive); in the experiment with SF-295, 18 µM (inactive); with SF-539, 0.186 µM (active); in the experiment on SK-MEL-2 it was 16.6 µM (inactive); in the experiment with SK-OV-3 it was 94.8 µM (inactive); in the experiment on SNB-75, 20.3 µM (inactive). Moreover, the results for the GI50 with T47D and in the experiment with UACC-62 were 12.5 µM (inactive) and 13.8 µM (inactive), respectively.

As for `CC(=O)Oc1ccc(OC(Oc2ccccc2)c2ccccc2)cc1` (stereo not drawn), the GI50 was 23.7 µM (inactive) with A498; 27 µM (inactive) in the experiment with BT-549; 20 µM (inactive) in the experiment with CAKI-1; 40.7 µM (inactive) with COLO 205; 36.9 µM (inactive) in the experiment with DU-145; 19 µM (inactive) in the experiment with HOP-92. For the same compound, the GI50 was 51.4 µM (inactive) with K562; 23.2 µM (inactive) in the experiment with KM12; 17.5 µM (inactive) with M14; 34 µM (inactive) with MOLT-4; 23.6 µM (inactive) with Malme-3M; 27 µM (inactive) in the experiment on NCI-H226. The GI50 was 17.7 µM (inactive) in the experiment with NCI-H23; 29.6 µM (inactive) in the experiment on SF-295; 23.1 µM (inactive) in the experiment on SF-539; 32.6 µM (inactive) in the experiment with SK-OV-3; 10.4 µM (inactive) in the experiment with SNB-75; 39.9 µM (inactive) with T47D. Also, the GI50 in the experiment on UACC-62 was 20.7 µM (inactive).

As to `O=C(Oc1cccc2cccnc12)c1cc2cc(CCl)ccc2oc1=O`, the GI50 is 48.8 µM (inactive) in the experiment with A498; 31.5 µM (inactive) in the experiment on BT-549; 29.9 µM (inactive) in the experiment on CAKI-1; 6.3 µM (inactive) in the experiment on COLO 205; 20.7 µM (inactive) in the experiment on DU-145; 34.2 µM (inactive) with HOP-92. Also, the GI50 was 3.1 µM (inactive) in the experiment with K562; 24 µM (inactive) in the experiment with KM12; 5.64 µM (inactive) in the experiment with M14; 2.8 µM (inactive) in the experiment with MOLT-4; 15.7 µM (inactive) in the experiment with Malme-3M; 75.9 µM (inactive) with NCI-H226. The GI50 with NCI-H23 is 8.39 µM (inactive); in the experiment with SF-295, 37.4 µM (inactive); in the experiment on SF-539 it was 18 µM (inactive); in the experiment with SK-MEL-2, 17.6 µM (inactive); in the experiment on SK-OV-3, > 100 µM (inactive); in the experiment with SNB-75, 56 µM (inactive). The GI50 in the experiment with T47D is 4.29 µM (inactive); in the experiment on UACC-62, 8.57 µM (inactive).
